Assays:
[1] = target: T1, human carboxylesterase 1 (CES1, hCES1) (Homo sapiens, UniProt P23141); experiment: biochemical
T1 sequence (P23141 18-567): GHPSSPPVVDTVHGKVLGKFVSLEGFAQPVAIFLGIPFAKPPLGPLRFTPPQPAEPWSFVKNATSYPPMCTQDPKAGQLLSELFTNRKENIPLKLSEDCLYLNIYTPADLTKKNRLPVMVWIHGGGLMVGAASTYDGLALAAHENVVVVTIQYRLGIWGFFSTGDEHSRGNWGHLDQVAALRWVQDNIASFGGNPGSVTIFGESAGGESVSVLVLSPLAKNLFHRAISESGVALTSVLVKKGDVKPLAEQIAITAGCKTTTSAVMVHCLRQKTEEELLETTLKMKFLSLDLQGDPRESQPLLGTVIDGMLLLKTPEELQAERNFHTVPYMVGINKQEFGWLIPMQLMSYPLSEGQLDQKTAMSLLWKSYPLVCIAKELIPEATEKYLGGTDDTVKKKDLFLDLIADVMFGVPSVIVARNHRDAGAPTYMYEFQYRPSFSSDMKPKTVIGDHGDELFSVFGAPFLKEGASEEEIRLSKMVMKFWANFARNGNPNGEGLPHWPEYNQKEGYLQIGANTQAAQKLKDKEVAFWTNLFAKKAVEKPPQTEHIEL

[2] = target: T2, human AChE (acetylcholinesterase) (Homo sapiens, UniProt P22303); experiment: Ellman assay, […] nm; type: biochemical
[3] = target: T1, human carboxylesterase 1 (CES1, hCES1); experiment: competition with 4-nitrophenyl acetate, […] nm; type: biochemical
[4] = target: T3, human carboxylesterase 2 (CES2, hCES2) (Homo sapiens, UniProt O00748); experiment: competition with 4-nitrophenyl acetate, […] nm; type: biochemical
T3 sequence (O00748 27-559): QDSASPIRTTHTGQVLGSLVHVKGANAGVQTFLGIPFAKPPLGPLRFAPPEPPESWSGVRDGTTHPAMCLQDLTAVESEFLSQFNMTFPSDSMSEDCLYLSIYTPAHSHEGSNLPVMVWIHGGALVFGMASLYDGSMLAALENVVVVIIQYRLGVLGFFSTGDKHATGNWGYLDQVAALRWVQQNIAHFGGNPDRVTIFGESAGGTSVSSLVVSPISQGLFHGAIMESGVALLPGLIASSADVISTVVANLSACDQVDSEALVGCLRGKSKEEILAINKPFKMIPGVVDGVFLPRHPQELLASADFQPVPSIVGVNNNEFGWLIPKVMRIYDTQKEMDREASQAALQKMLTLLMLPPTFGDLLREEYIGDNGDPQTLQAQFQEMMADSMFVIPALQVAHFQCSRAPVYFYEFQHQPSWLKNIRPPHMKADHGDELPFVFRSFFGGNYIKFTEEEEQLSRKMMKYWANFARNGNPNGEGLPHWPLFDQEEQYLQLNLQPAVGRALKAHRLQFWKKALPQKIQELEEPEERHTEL

[5] = target: T2, human AChE (acetylcholinesterase); experiment: biochemical
[6] = target: T4, human BChE (butyrylcholinesterase, BuChE) (Homo sapiens, UniProt P06276); experiment: Ellman assay, […] nm; type: biochemical
[7] = target: T3, human carboxylesterase 2 (CES2, hCES2); experiment: biochemical
[8] = test system: PC3; experiment: in vitro; conditions: read-out: EC50 cmpd 3.10; human, 48 h
[9] = in vitro; conditions: human
[10] = test system: H23; experiment: in vitro; conditions: read-out: EC50 viability, 3.10; human, 48 h
[11] = test system: Colo205; experiment: in vitro; conditions: read-out: EC50 viability, 3.10; human, 48 h
[12] = test system: HTC116; experiment: in vitro; conditions: read-out: EC50 viability, 3.10; human, 48 h
[13] = in vitro; conditions: human, EC50 viability, 3.10
[14] = test system: MDA-MB-231; experiment: in vitro; conditions: read-out: EC50 viability, 3.10; human, 48 h
[15] = test system: HT29; experiment: in vitro; conditions: read-out: EC50 viability, 3.10; human, 48 h
[16] = test system: HeLa; experiment: in vitro; conditions: read-out: EC50 viability, 3.10; human, 48 h
[17] = target: T4, human BChE (butyrylcholinesterase, BuChE); experiment: biochemical

T4 sequence (P06276 29-602): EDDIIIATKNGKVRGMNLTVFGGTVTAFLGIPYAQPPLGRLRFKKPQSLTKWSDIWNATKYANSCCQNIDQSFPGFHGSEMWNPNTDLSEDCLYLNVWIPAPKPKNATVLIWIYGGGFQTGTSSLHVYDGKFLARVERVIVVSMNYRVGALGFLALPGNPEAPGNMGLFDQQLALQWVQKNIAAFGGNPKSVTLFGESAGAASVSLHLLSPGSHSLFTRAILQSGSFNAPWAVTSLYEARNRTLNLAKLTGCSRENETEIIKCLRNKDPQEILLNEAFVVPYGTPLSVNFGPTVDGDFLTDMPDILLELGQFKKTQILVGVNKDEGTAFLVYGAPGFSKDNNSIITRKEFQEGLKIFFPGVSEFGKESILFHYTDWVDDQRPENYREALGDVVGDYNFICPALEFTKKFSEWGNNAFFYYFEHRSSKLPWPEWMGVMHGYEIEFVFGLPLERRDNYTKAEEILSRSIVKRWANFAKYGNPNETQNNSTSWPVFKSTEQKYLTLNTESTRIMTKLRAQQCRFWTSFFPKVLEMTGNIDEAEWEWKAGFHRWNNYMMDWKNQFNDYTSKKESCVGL
T2 sequence (P22303 32-614): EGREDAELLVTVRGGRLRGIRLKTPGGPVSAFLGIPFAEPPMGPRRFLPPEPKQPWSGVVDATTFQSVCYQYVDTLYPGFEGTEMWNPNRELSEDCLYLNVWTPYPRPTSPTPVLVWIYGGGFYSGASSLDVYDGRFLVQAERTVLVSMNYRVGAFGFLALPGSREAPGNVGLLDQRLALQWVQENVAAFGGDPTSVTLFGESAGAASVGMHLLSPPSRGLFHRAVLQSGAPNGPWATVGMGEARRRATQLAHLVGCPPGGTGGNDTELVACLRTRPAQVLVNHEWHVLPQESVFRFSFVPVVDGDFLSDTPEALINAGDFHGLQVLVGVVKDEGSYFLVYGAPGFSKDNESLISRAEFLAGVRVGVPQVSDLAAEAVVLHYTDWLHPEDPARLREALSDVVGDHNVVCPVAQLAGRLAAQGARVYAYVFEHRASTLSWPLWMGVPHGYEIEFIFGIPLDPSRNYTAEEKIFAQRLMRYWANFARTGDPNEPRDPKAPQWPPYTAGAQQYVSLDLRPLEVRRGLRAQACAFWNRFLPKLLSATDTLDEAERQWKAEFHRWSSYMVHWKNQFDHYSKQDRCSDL

Row | SMILES | IC50 [1] [nM] | Ki [2] [µM] | Ki [3] [nM] | Ki [4] [nM] | IC50 [5] [µM] | Ki [6] [nM] | IC50 [7] [nM] | CC50 [8] [µM] | CC50 at 48 h [9] [µM] | CC50 [10] [µM] | CC50 [11] [µM] | CC50 [12] [µM] | CC50 at 48 h [13] [µM] | CC50 [14] [µM] | CC50 [15] [µM] | CC50 [16] [µM] | IC50 [17] [nM] | CC50 at 48 h ([9]; 263t cells) [µM]
1 | OB(O)c1cc(Br)cc(Oc2ccccc2)c1 [3.10, compound 3.10] | 2 | 9.3 | 1.1 | 2.1 | 23 | 94 | 3.8 | > 100 | > 100 | > 100 | > 100 | > 100 | > 100 | > 100 | > 100 | > 100 | 490 | 
2 | OB(O)c1cc(Br)cc(N2CCCC2)c1 [compound 3] | 7.4 | 25 | 4.1 | 21 | 61 | 260 | 37 |  |  |  |  |  |  |  |  |  |  | > 100

— publication doi:10.1101/161430v2 (biorxiv, 2019)
